Measurements taken from patent publication US7776882B2, “2-amino-3,4-dihydro-quinoline derivatives useful as inhibitors of β-secretase (BACE)” (priority 2006, dated 2010).

Columns and labels:
Format in all cases: biochemical
[1] = target: T1, β-secretase (BACE) (Homo sapiens, UniProt P56817); experiment: In Vitro BACE % Inhibition Assay, (Aedens)-[…]-(Dabcyl K-amide) substrate (Example 12); conditions: for % Inhibition 3 μM: 3 μM compound; for % Inhibition 3 μM / % Inhibition 10 μM: values below about 25% (including negative) within noise; for % Inhibition 10 μM: 10 μM compound
T1 construct: purchased Panvera
Protocol: The following reagents were used in this assay: sodium acetate, PEG8000 (Sigma), DMSO, HEPES, (Aedens)-[…]-(Dabcyl K-amide) substrate, β-secretase (BACE) (Panvera), and 96-well plate (HE microplate, Molecular Devices).
(§1) The following assay buffers were prepared and used in this assay: (1) enzyme assay buffer (0.05 M sodium acetate, pH5, 0.1% PEG8000 (w/v)), (2) substrate assay buffer (0.05 M sodium acetate, pH5), and (3) compound vehicle (30% DMSO in 50 mM HEPES, pH 7.4).
(§2) The substrate stock solution was prepared in DMSO as a 10 mg/mL solution. The substrate working solution was prepared by diluting the 10 mg/mL stock solution with substrate assay buffer to a final concentration of 300 μg/mL. The β-secretase (BACE) working solution was prepared by diluting a 0.83 mg/mL BACE stock solution with enzyme assay buffer to a final concentration of 4 μg/mL.
Test compounds were dissolved in DMSO to 10 mM. Compounds were further diluted in vehicle to various concentrations in the range of 405 μM to 4.05 μM (13.5×final compound concentration in screening plate).
The screening procedure for this assay was as follows: 15 μL of BACE working solution was pipetted into each well of a 96-well plate. To each well was then pipetted 2 μL of test compound at the selected concentration. Test compound and BACE were then mixed with a pipettor and incubated for 20 min at room temperature. To each well was then added 10 μL of the substrate working solution. The plates were then incubated for 1 hour at room temperature. The fluorescence for each well was then measured on an LJL analyst (Ex 360 nm/Em 530 nm).
The procedure for the blank (negative control) was as follows. 15 μL of assay buffer was pipetted into each well to be used as a blank control. To each well was then added 2 μL of vehicle and 10 μL of substrate working solution. The plates were then incubated for 1 hour at room temperature. The fluorescence was measured on an LJL analyst (Ex 360 nm/Em 530 nm).
The procedure for the positive control was as follows: 15 μl of BACE working solution was pipetted into each well to be used as a positive control. To each well was then pipetted 2 μL of vehicle. Vehicle and BACE were then mixed with a pipettor and incubated for 20 min at room temperature. To each well was then added 10 μL of the substrate working solution. The plates were then incubated for 1 hour at room temperature. The fluorescence (Fl) was then measured on an LJL analyst (Ex 360 nm/Em 530 nm).
For test compounds, % inhibition was determined at each concentration as follows:
% Inhibition values of less than 30% were indistinguishable from control and are listed as ≦30% in the Table below.

[2] = target: T1, β-secretase (BACE); experiment: In Vitro BACE Assay, Ki (Example 11); conditions: Ki (μM) (Example 11), FS1 substrate 50 μM, Km 24 μM
Protocol: The following reagents were used in this assay: sodium acetate, PEG8000 (Sigma), DMSO, HEPES, FS1 substrate [R(AedensE)[…]-(DabcylK)R], β-secretase (BACE) (Panvera), and 96-well plate (HE microplate, Molecular Devices).
as §1
as §2, with “The FS1-substrate” for “The substrate”
Test compounds were dissolved in DMSO at 10 mM.
(§3) The procedure for this assay was as follows: 15 μL of BACE working solution was pipetted into each well of a 96-well plate. To each well was then pipetted 2 μL of test compound at the selected concentration. Test compound and BACE were then mixed with a pipettor and incubated for 20 min at room temperature. To each well was then added 10 μL of the FS1 substrate working solution. The fluorescence for each well was then measured on a Polarstar fluorometer (Ex 390 nm/Em 520 nm) for 20 min at room temperature, reading fluorescence at 1 min intervals.
as §3, with “for the positive control” for “for this assay”, “well to be used as” for “well of”, “a positive control.” for “a 96-well plate.”, “of vehicle. Vehicle” for “of test compound at the selected concentration. Test compound”, “fluorescence” for “fluorescence for each well”
For test compounds, Ki inhibition was determined as follows: For each compound concentration and positive control, rate of cleavage of substrate (Vi, where i=compound concentration in μM) was determined as Δ Fluorescence/Δ time (min). Cleavage rates (Vi) were plotted as a function of inhibitor concentration in μM [I]. The Ki was then determined by fitting the following equation to the graph of [I] vs Vi Y=aVmax/(50+24*(1+X/Ki)),

[3] = target: T1, β-secretase (BACE); experiment: In Vitro BACE IC50 Assay, MCA-substrate (Example 13); conditions: 1 hour at room temperature
Source text: The following standards are reagents were used in this assay: Sodium Citrate trisodium salt dihydrate (Sigma), Citric Acid monohydrate (Merck), PEG8000 (Sigma), MCA-substrate (Bachem), β-secretase (BACE) (Panvera), 96-well black plate (Costar (Elscolab)), StatVal (Bachem). The standard assay buffer solution prepared and used in this assay is as follows: 0.05 M, pH 5.0 mixture of sodium citrate trisodium salt dihydrate (9.56 g), citric acid monohydrate (3.68 g) and PEG8000 (0.50 g). The MCA-substrate stock solution was prepared by mixing 10 mg MCA-substrate with 5 mL DMSO for a final solution concentration of 2.0 mg/mL. […]
Briefly, the procedure for this BACE IC50 assay was as follows. […] Each well was mixed for a few seconds and the T0 measured with a Fluoroscan Ex320/Em405. The plates were then incubated for 1 hour at room temperature and the T60 measured with the Fluoroscan Ex 320 nm/Em 405 nm.
The procedure for the blank (reference well) was as follows. […] The T0 was measured with the Fluoroscan Ex 320 nm/Em 405 nm, the plate was incubated for 1 hour at room temperature and the T60 was then measured with the Fluoroscan Ex 320 nm/Em 405 nm.
The procedure for the positive control was as follows. […] The T0 was measured with the Fluoroscan Ex 320 nm/Em 405 nm, the plate was incubated for 1 hour at room temperature and the T60 was then measured with the Fluoroscan Ex 320 nm/Em 405 nm. […]

T1 sequence (P56817 46-501): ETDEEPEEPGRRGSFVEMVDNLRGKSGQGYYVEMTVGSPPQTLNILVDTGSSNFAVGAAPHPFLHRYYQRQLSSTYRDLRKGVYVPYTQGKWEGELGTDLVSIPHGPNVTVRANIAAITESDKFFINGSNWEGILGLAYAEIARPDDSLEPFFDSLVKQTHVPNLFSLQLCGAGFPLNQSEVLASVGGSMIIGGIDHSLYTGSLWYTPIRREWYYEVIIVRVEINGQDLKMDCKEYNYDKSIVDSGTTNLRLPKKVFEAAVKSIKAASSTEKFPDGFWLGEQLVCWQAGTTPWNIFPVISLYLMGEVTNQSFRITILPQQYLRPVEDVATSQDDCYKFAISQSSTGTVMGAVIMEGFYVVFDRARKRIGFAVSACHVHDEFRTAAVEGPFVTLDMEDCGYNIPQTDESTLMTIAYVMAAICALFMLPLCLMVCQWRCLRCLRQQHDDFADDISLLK

SMILES | % Inhibition 3 μM [1] [%] | % Inhibition 10 μM [1] [%] | IC50 [3] [nM] | other results
CN(C(=O)CCc1cc2cc(Oc3ccccc3)ccc2nc1N)C1CCCCC1 [compound 1] | −8.5 | 9 | – | –
CN(C(=O)CCC1Cc2cc(Oc3ccccc3)ccc2N=C1N)C1CCCCC1 (stereo not shown) [compound 101] | – | – | – | Ki [1]: 280 nM; Ki [2]: 0.1 µM
CN(C(=O)CC[C@H]1Cc2cc(Oc3ccccc3)ccc2N=C1N)C1CCCCC1 [compound 102] | – | – | 170 | –
CN(C(=O)CC[C@@H]1Cc2cc(Oc3ccccc3)ccc2N=C1N)C1CCCCC1 [compound 103] | – | – | 220 | –

The next lines start with results.

% Inhibition 3 μM [1] [%] | % Inhibition 10 μM [1] [%] | IC50 [3] [nM] | SMILES | other results
12 | −36 | – | CC(C)(C)OC(=O)CCc1cc2cc(Oc3ccccc3)ccc2nc1N [compound 501] | –
−8 | −16 | – | Nc1nc2ccc(Oc3ccccc3)cc2cc1CCC(=O)O [compound 502] | –
